The source made the active and inactive calls. No cut-off for these calls is given here.

Assay [1] has as its system Rattus norvegicus. Briefly: High-ceiling diuretic activity in Wistar rat assessed as drug to urea ratio to cause diuresis at 50 mg/kg, po measured for 5 hrs (reference value: 0.44 +/- 0.05 no unit). It counts as functional, Urine.
Assay [2] concerns Rattus norvegicus. Briefly: High-ceiling diuretic activity in Wistar rat assessed as drug to urea ratio to increase Na+ level in urine at 50 mg/kg, po measured for 5 hrs by flame photometric analysis (reference value: 0.47 +/- 0.07 no unit). Format: functional.
Assay [3] relates to Rattus norvegicus. Briefly: High-ceiling diuretic activity in Wistar rat assessed as drug to urea ratio to increase K+ level in urine at 50 mg/kg, po measured for 5 hrs by flame photometric analysis (reference value: 0.57 +/- 0.08 no unit). It counts as functional.
A further assay deals with Canis familiaris. The experiment in a line: High-ceiling diuretic activity in Beagle dog at 20 mg/kg, po. It counts as functional, organism-based. Also noted: dose 20 mg/kg. As to conditions: Canis lupus familiaris, Urine.

For `NS(=O)(=O)c1cc(C(=O)O)cc2c1Sc1ccccc1CN2`, the Ratio in the assay on Rattus norvegicus [1] worked out at 0.07; in the assay on Rattus norvegicus [2], 0.13; with Rattus norvegicus [3], 0.05. The outcome in the assay with Canis familiaris was inactive.
The like results for `NS(=O)(=O)c1cc(C(=O)O)cc2c1Sc1ccccc1C(=O)N2` were, in that order, 0.56, 0.71, 0.62 and “inactive”.
`NS(=O)(=O)c1cc(C(=O)O)cc2c1Oc1ccccc1CN2`: the Ratio in the assay with Rattus norvegicus [1] is on record as 0.47; in the assay on Rattus norvegicus [2], 1; in the assay with Rattus norvegicus [3], 0.9.
The like results for `COC(=O)c1cc2c(c(S(N)(=O)=O)c1)Oc1ccccc1C(=O)N2` were, in that order, 0.79, 1.24 and 0.63.
The corresponding values for `COC(=O)c1cc2c(c(S(N)(=O)=O)c1)Sc1ccccc1C(=O)N2` are 0.25, 0.42 and 0.41.
The like results for `CCCCNc1cc(C(=O)O)cc(S(N)(=O)=O)c1Oc1ccccc1` [BUMETANIDE] were, in that order, 2.6, 4.66 and 0.97.

(Values after ChEMBL document CHEMBL3244200, “8-Carboxy-6-sulfamyldibenz[b,f][1,4]oxazepines and -thiazepines as potential high-ceiling diuretics” (1978).)
